Measured values from patent publication US10294234B2, “HIV inhibitor compounds” (priority 2017, dated 2019).
Read-outs that look alike come from different tables or passages of the source.

Experiments:
[1] = 3H Human Predicted Clearance Assay (tritiated analogs); format: in vitro ADME; set-up: unit not given here
Protocol: 3H Human Predicted Clearance Assay:
For certain compounds, tritiated analogs (H^3) were prepared to further determined their human predicted clearance with increased resolution. Those studies were performed as described above using the tritiated analogs. Data from those compounds is found in Table 2 below and reported in FIG. 1 (note ATV and DRV were not tritiated).

[2] = Outline: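 Dog, rat and human liver microsomes (0.5 mg/mL) with NADPH-regenerating cofactor; test compound 1 uM, duplicates. Timepoints 2, 12, 25, 45, 65 min; protein removed by centrifugation, supernatant analysed by LC/MS/MS. Clint from t1/2.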
[3] = system: HIV-1 (IIIB) in MT-4 cells; assay: MT-4 HIV assay; format: cell-based; details: Human immunodeficiency virus 1, MT4, 120 h
Outline: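 MT-4 cells infected with HIV-1 IIIB (1:250 stock dilution) were incubated with 1:3 serially diluted compounds in RPMI with 10% FBS for 5 days at 37 °C. Cell Titer Glo luminescence was the readout. Plates included mock-infected wells, no-drug wells and 5 uM AZT controls.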

[4] = HIV-1 (IIIB), MT-4 cells, 5 days, Cell Titer Glo, read-out: EC50

3H Human Predicted Cl. ([1]; tritiated analogs, human liver microsomes) | Human Pred Cl. ([2]; human liver microsomes 0.5 mg/mL, 1 uM compound, NADPH) | SMILES | 3H Human Predicted Cl. ([1]; human, 1 uM) | Human Pred Cl. ([2]; human, microsomes) | Rat. Pred. Cl. ([2]; microsomes) | EC50 [3, 4] | EC50 [3] | Dog. Pred. Cl. ([2]; dog, microsomes)
 |  | COC(=O)N[C@H](C(=O)N[C@@H](Cc1ccc(C#Cc2ccc(N3CC4CCC(C3)N4C3COC3)nc2)cc1)[C@@H](O)CN(Cc1c(F)cc(-c2nnc(C3CC3)s2)cc1F)NC(=O)[C@@H](NC(=O)OC)C(C)(C)C(F)(F)F)C(C)(C)C(F)(F)F [Example 75, Methyl ((5S,8S,9S,14S)-11-(4-(5-cyclopropyl-1,3,4-thiadiazol-2-yl)-2,6-difluorobenzyl)-16,16,16-trifluoro-9-hydroxy-15,15-dimethyl-8-(4-((6-(8-(oxetan-3-yl)-3,8-diazabicyclo[3.2.1]octan-3-yl)pyridin-3-yl)ethynyl)benzyl)-3,6,13-trioxo-5-(1,1,1-trifluoro-2-methylpropan-2-yl)-2-oxa-4,7,11,12-tetraazahexadecan-14-yl)carbamate] | 0.11 | <0.11 L/H/kg | 0.21 L/H/kg | 3.41 nM |  | 
0.11 | <0.11 L/H/kg | COC(=O)N[C@H](C(=O)N[C@@H](Cc1ccc(C#Cc2ccc(N3CCN4CCOC[C@H]4C3)nc2)cc1)[C@@H](O)CN(Cc1c(F)cc(-c2ccn(C(F)F)n2)cc1F)NC(=O)[C@@H](NC(=O)OC)C(C)(C)C(F)(F)F)C(C)(C)C(F)(F)F [Example 51, methyl ((5S,8S,9S,14S)-11-(4-(1-(difluoromethyl)-1H-pyrazol-3-yl)-2,6-difluorobenzyl)-16,16,16-trifluoro-8-(4-((6-((R)-hexahydropyrazino[2,1-c][1,4]oxazin-8(1H)-yl)pyridin-3-yl)ethynyl)benzyl)-9-hydroxy-15,15-dimethyl-3,6,13-trioxo-5-(1,1,1-trifluoro-2-methylpropan-2-yl)-2-oxa-4,7,11,12-tetraazahexadecan-14-yl)carbamate] |  |  |  |  | 2.8 nM | 
 |  | COC(=O)N[C@H](C(=O)NN(Cc1c(F)cc(-c2ccn(C(F)F)n2)cc1F)C[C@H](O)[C@H](Cc1ccc(C#Cc2cnc(N3CC4CCC(C3)N4C3COC3)nc2)cc1)NC(=O)[C@@H](NC(=O)OC)C(C)(C)C(F)(F)F)C(C)(C)C [Example 23, Methyl ((5S,8S,9S,14S)-11-(4-(1-(difluoromethyl)-1H-pyrazol-3-yl)-2,6-difluorobenzyl)-9-hydroxy-15,15-dimethyl-8-(4-((2-(8-(oxetan-3-yl)-3,8-diazabicyclo[3.2.1]octan-3-yl)pyrimidin-5-yl)ethynyl)benzyl)-3,6,13-trioxo-5-(1,1,1-trifluoro-2-methylpropan-2-yl)-2-oxa-4,7,11,12-tetraazahexadecan-14-yl)carbamate] | 0.07 | <0.11 L/H/kg | 0.22 L/H/kg | 4.82 nM |  | 0.21 L/H/kg
